≈ marks a conversion by molar mass, not a printed value.
Tests used:
[1] = tested on: Escherichia coli; test: Antibacterial activity against wild type Escherichia coli LM179; assay type: functional
[2] = tested on: Escherichia coli; test: Antibacterial activity against Escherichia coli LM625 harboring GyrA S83L/D87N double mutant; assay type: functional
[3] = tested on: Acinetobacter baumannii; test: Antibacterial activity against Acinetobacter baumannii NCTC 13420; assay type: functional
[4] = tested on: Klebsiella pneumoniae; test: Antibacterial activity against Klebsiella pneumoniae ATCC 700603; assay type: functional
[5] = tested on: Pseudomonas aeruginosa; test: Antibacterial activity against Pseudomonas aeruginosa ATCC 27853; assay type: functional
[6] = tested on: Staphylococcus aureus; test: Antibacterial activity against Staphylococcus aureus ATCC 29213; assay type: functional
[7] = tested on: Escherichia coli; test: Antibacterial activity against Escherichia coli W4573; assay type: functional
[8] = tested on: Escherichia coli; test: Antibacterial activity against Escherichia coli N43; assay type: functional
[9] = tested on: HepG2; test: Cytotoxicity against human HepG2 cells after 24 hrs by cell titre-glo assay; assay type: cell-based; conditions: HepG2, 24 h
[10] = n-octanol/phosphate buffer partition coefficient, log D of compound at pH 7.4 by shake-flask assay; assay type: physicochemical
[11] = molecular target: hERG (KCNH2) (Homo sapiens, UniProt Q12809); test: Inhibition of human ERG channel at 100 uM by automated patch clamp assay
[12] = molecular target: Voltage-gated inwardly rectifying potassium channel KCNH2 (Homo sapiens, UniProt Q12809); test: Inhibition of human ERG channel by automated patch clamp assay
[13] = tested on: Escherichia coli; test: Antibacterial activity against Escherichia coli LM367 harboring delta marR/delta acrR double mutant; assay type: functional
[14] = tested on: Escherichia coli; test: Antibacterial activity against Escherichia coli LM693 harboring GyrA S83L/D87N double mutant/ParC S80I mutant; assay type: functional
[15] = tested on: Escherichia coli; test: Antibacterial activity against Escherichia coli LM705 harboring GyrA S83L/D87N double mutant/ParC S80I mutant/delta marR/delta acrR double mutant; assay type: functional
[16] = tested on: Escherichia coli; test: Antibacterial activity against Escherichia coli CH440 harboring GyrA S83L/D87N double mutant/ParC S80I E84V double mutant/aac(6')-lb-cr; assay type: functional
[17] = tested on: Escherichia coli; test: Antibacterial activity against Escherichia coli CH460 harboring GyrA S83L/D87N double mutant/ParC S80I E84V double mutant/qepA; assay type: functional
[18] = tested on: Escherichia coli; test: Antibacterial activity against Escherichia coli CH418 harboring GyrA S83L/D87N double mutant/ParC S80I E84G double mutant/qnrA; assay type: functional
[19] = tested on: Escherichia coli; test: Antibacterial activity against Escherichia coli CH448 harboring GyrA S83L mutant/qnrS; assay type: functional
[20] = tested on: Escherichia coli; test: Selectivity ratio of MIC for Escherichia coli LM625 harboring GyrA S83L/D87N double mutant to MIC for wild type Escherichia coli LM179; assay type: functional
[21] = tested on: Escherichia coli; test: Selectivity ratio of MIC for Escherichia coli LM367 harboring delta marR/delta acrR double mutant to MIC for wild type Escherichia coli LM179; assay type: functional
[22] = tested on: Escherichia coli; test: Selectivity ratio of MIC for Escherichia coli LM693 harboring GyrA S83L/D87N double mutant/ParC S80I mutant to MIC for wild type Escherichia coli LM179; assay type: functional
[23] = tested on: Escherichia coli; test: Selectivity ratio of MIC for Escherichia coli LM705 harboring GyrA S83L/D87N double mutant/ParC S80I mutant/delta marR/delta acrR double mutant to MIC for wild type Escherichia coli LM179; assay type: functional
[24] = tested on: Escherichia coli; test: Selectivity ratio of MIC for Escherichia coli CH440 harboring GyrA S83L/D87N double mutant/ParC S80I E84V double mutant/aac(6')-lb-cr to MIC for wild type Escherichia coli LM179; assay type: functional
[25] = tested on: Escherichia coli; test: Selectivity ratio of MIC for Escherichia coli CH460 harboring GyrA S83L/D87N double mutant/ParC S80I E84V double mutant/qepA to MIC for wild type Escherichia coli LM179; assay type: functional
[26] = tested on: Escherichia coli; test: Selectivity ratio of MIC for Escherichia coli CH418 harboring GyrA S83L/D87N double mutant/ParC S80I E84G double mutant/qnrA to MIC for wild type Escherichia coli LM179; assay type: functional
[27] = tested on: Escherichia coli; test: Selectivity ratio of MIC for Escherichia coli CH448 harboring GyrA S83L mutant/qnrS to MIC for wild type Escherichia coli LM179; assay type: functional

Sequence of hERG (KCNH2) (Q12809 whole entry): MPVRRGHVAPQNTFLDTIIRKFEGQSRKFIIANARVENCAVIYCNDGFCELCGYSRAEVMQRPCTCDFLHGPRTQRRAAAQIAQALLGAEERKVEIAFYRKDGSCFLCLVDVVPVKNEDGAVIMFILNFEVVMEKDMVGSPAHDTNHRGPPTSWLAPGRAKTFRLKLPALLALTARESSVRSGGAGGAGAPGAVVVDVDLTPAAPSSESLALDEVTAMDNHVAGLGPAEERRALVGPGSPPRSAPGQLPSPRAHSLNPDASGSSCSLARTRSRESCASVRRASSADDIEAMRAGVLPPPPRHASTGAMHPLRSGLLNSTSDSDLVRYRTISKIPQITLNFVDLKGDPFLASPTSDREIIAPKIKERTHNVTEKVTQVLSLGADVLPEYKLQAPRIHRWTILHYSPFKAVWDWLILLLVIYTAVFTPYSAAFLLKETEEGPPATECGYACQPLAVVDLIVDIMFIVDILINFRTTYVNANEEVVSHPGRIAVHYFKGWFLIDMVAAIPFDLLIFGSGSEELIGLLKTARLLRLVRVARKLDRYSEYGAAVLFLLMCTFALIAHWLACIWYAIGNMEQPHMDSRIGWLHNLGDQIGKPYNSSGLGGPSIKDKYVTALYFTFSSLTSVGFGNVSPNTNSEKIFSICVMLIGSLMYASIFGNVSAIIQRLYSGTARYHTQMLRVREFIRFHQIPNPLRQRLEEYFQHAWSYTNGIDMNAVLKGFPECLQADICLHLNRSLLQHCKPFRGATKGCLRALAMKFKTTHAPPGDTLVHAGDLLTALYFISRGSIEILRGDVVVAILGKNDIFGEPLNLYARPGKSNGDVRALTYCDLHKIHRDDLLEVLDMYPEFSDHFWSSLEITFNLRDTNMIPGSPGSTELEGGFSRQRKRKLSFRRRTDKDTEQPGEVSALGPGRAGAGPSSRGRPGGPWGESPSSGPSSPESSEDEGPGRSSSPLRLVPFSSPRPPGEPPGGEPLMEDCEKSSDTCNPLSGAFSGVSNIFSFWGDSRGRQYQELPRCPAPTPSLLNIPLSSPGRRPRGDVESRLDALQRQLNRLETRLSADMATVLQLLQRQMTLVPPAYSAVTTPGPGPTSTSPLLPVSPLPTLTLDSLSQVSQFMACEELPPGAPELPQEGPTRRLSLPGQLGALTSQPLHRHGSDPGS
Sequence of Voltage-gated inwardly rectifying potassium channel KCNH2 (Q12809 whole entry): as above

Work on `CCc1c(-c2ccc(N3CCC(N(C)C)C3)cc2)[nH]c(=O)c2c(=O)[nH]sc12` (racemic) yielded an MIC [1] of 0.5 mg/L (≈ 1.3 µM), an MIC [2] of 4 mg/L (≈ 10.4 µM) and an MIC [3] of 2 mg/L (≈ 5.2 µM). For the same compound, the MIC [4] was 4 mg/L (≈ 10.4 µM), the MIC [5] was 1 mg/L (≈ 2.6 µM) and the MIC [6] was 1 mg/L (≈ 2.6 µM). For the same compound, the MIC [7] was 0.25 mg/L (≈ 0.65 µM), the MIC [8] was 0.03 mg/L (≈ 0.078 µM) and the IC50 [9] was over 128 mg/L. The logD [10] was 1.4, the inhibition at 100 µM [11] was 84% and the IC50 [12] was 20 µM. It also gave an MIC [13] of 2 mg/L (≈ 5.2 µM), an MIC [14] of 8 mg/L (≈ 20.8 µM) and an MIC [15] of 64 mg/L (≈ 166 µM). For the same compound, the MIC [16] was 16 mg/L (≈ 41.6 µM), the MIC [17] was 16 mg/L (≈ 41.6 µM) and the MIC [18] was 16 mg/L (≈ 41.6 µM). It also gave an MIC [19] of 16 mg/L (≈ 41.6 µM), a Selectivity ratio [20] of 8 and a Selectivity ratio [21] of 4. It also gave a Selectivity ratio [22] of 16, a Selectivity ratio [23] of 128 and a Selectivity ratio [24] of 32. For the same compound, the Selectivity ratio [25] was 32, the Selectivity ratio [26] was 32 and the Selectivity ratio [27] was 32.

From ChEMBL document CHEMBL4477259, “Discovery and structure-activity relationships of a novel isothiazolone class of bacterial type II topoisomerase inhibitors” (Bioorg Med Chem Lett, 2016)
